Consider six compounds from publication PMC6268262, “Improved Antileishmanial Activity of Dppz through Complexation with Antimony(III) and Bismuth(III): Investigation of the Role of the Metal” (Molecules, 2012).

Data set [1] deals with L. amazonensis (SbR) promastigotes, BA199Sb2700.2. The data set is described as follows: Antileishmanial activity assay, promastigote growth, Sb-resistant mutant. The following applies: 72 h, read-out: IC50 (μM) ± SEM. It counts as cell-based, Leishmania amazonensis. Here is the method:
(§1) Leishmania (Leishmania) amazonensis (strain MHOM/BR/1989/BA199) and Leishmania (Leishmania)infantum chagasi (strain MCAN/BR/2002/BH400) promastigotes were maintained in minimum essential culture medium (α-MEM) (Gibco, Invitrogen, Grand Island, NY, USA) supplemented with 10% (v/v) heat inactivated fetal calf serum (Cultilab, Campinas, SP, Brazil), […] kanamycin, […] ampicillin, 2 mM L-glutamine, 5 mg/mL hemin, 5 mM biopterin, (Sigma-Aldrich), pH 7.0 and incubated at 25 °C. L. amazonensis and L. infantum chagasi were selected for Sb(III) resistance as previously decribed. The Sb(III)-resistant mutants L. amazonensis BA199Sb2700.2 and L. infantum chagasi BH400Sb2700.2 were selected in 25 cm^2 flasks containing 5 mL of α-MEM in the presence of increasing Sb(III) concentrations up to 2,700 μM.
(§2) Complexes 1 and 2 were evaluated in vitro for their activity against both Sb(III)-sensitive and -resistant Leishmania parasites. Log-phase L. amazonensis and L. infantum chagasi promastigotes (1 × 10^6 parasites/mL) were seeded in 24-wells cell culture plates with 1.5 mL of α-MEM, incubated under shaking at 25 °C during 72 h in the presence of several concentrations of complex 1 or 2. Controls were performed using cultures in the presence of potassium antimonyl tartrate, SbCl3, BiCl3 and dppz itself. Non-treated parasites were established for growth comparison. Stock solutions of dppz, its complexes, SbCl3 and BiCl3 were dissolved in DMSO (5 M) and diluted in α-MEM cell culture medium to obtain the range of tested concentrations. […] For drug susceptibility assay, Leishmania growth curves were constructed by measuring absorbance at 600 nm. […] All experiments were done at least three times as independent experiments performed in triplicate.
(§3) The IC50 and CC50 values were calculated by nonlinear regression using the software GraphPad Prism 5.0. The acceptable level of significance was 95% (p < 0.05).

The test system of data set [2] is L. amazonensis (WT) promastigotes, strain BA199. The data set is described as follows: Antileishmanial activity assay, promastigote growth, wild-type strain. It counts as cell-based, Leishmania amazonensis. The following applies: 72 h, 25 °C. As to the method: as §1, §2, §3
Data set [3] concerns L. infantum chagasi (WT) promastigotes, strain BH400. In words: Antileishmanial activity assay, promastigote growth (absorbance 600 nm), wild-type strain. It is filed as cell-based, Leishmania infantum chagasi. The conditions noted are these: 72 h, 25 °C. As to the method:
as §1, §2, §3

In data set [4] the test system is L. infantum chagasi (SbR) promastigotes, BH400Sb2700.2. The data set is described as follows: Antileishmanial activity assay, promastigote growth, Sb-resistant mutant. It is filed as cell-based, Leishmania infantum chagasi. The following applies: 72 h, read-out: IC50 (μM) ± SEM. Here is the method:
as §1, §2, §3

Data set [5] concerns Leishmania promastigotes. The data set is described as follows: microbe, parasite or virus in culture. It counts as cell-based, Leishmania infantum chagasi and Leishmania amazonensis. The conditions noted are these: for concentration in whose presence Sb-resistant lines failed to grow: L. infantum chagasi BH400 Sb2700.2 and L. amazonensis BA199 Sb2700.2. As to the method:
as §1, §2

For data set [6], the system named is mouse peritoneal macrophages. The data set is described as follows: Cytotoxicity assay against peritoneal macrophages (MTT). It counts as cell-based. As to the method:
(§4) Macrophages were obtained by lavage of peritoneal cavity of mice with 10 mL cold RPMI without FBS. After washing, the cell suspension (4.0 × 10^6/mL) was seeded (0.1 mL) in 96-well flat bottom plates. Macrophages were allowed to adhere for 2 h and non-adherent cells were removed by washing with RPMI. Then, the studied compounds were added to the wells at concentrations ranging from 1 to 20 μM and the cells were further cultured in RPMI-1640 supplemented with 10% FBS for 24 h at 37 °C in a humidified 5% CO2 atmosphere. Thereafter, the medium was replaced with fresh RPMI containing 0.5 mg/mL of MTT and the plates were incubated for additional 4 h. Supernatants were aspirated and the formazan crystals formed were dissolved in 100 μL of DMSO. After 15 min of incubation at room temperature, absorbance of solubilized MTT formazan product was spectrophotometrically measured at 570 nm.
as §3

Assay in data set [7]: as above
The conditions noted are these: mouse peritoneal macrophages, MTT, 24 h. It is filed as cell-based, mouse. Here is the method: as §4, §3

Data set [8] in a line: n-Octanol/water partition coefficient, Shake-Flask method. It counts as physicochemical. The following applies: phosphate buffer pH 6.8. As to the method: Then, three different partition system were prepared by adding these solutions to water-saturated octanol, in octanol/water volume ratios, 1:1, 1:2 and 2:1 in duplicate. The mixtures were vortexed for 10 min and then centrifuged for 5 min. The partition coefficients were determined using the absorbance of complexes 1 and 2. Calculated dppz log P value was obtained from the program ALOGPS 2.143 available on line.

Data set [9] can be described thus: Stability of the complexes by UV absorption spectroscopy. It counts as physicochemical. The following applies: 10 µmol·L^−1 in DMSO, DMSO-containing water and octanol, 0 to 4 h. As to the method: The stability of the complexes was checked by UV absorption spectroscopy. For this purpose, UV absorption spectra were registered at different time intervals (from 0 to 4 h) for dppz and complexes 1 and 2 at 10 µmol·L^−1 in DMSO, DMSO-containing water and octanol.

[10] abbreviates: L. amazonensis (SbR) promastigotes, 25 °C.
Setting [11] is: L. infantum chagasi (SbR) promastigotes, 25 °C.
[12] abbreviates: listed as dppzBiCl3, read-out: IC50 (μM) ± SEM.
[13] abbreviates: listed as dppzSbCl3, read-out: IC50 (μM) ± SEM.

Where two headings read alike, the source gives them in different places.

In the case of `[Cl][Bi]([Cl])[Cl]` [BiCl3, Bi(III) chloride], the IC50 is > 500 µM in data set [1] (setting [10]), 621 ± 2 µM in data set [2] (read-out: IC50 (μM) ± SEM), 563 ± 2 µM in data set [3] (read-out: IC50 (μM) ± SEM) and > 500 µM in [4] (setting [11]).
For the compound `c1ccc2nc3c4cccnc4c4ncccc4c3nc2c1` [Dppz, dipyrido[3,2-a:2',3'-c]phenazine], the IC50 in data set [1] (Leishmania amazonensis) is 2 ± 0.05 µM; in data set [5] (Leishmania, read-out: IC50 range over strains), 0.8 to 2 µM; in [2] (Leishmania amazonensis, read-out: IC50 (μM) ± SEM), > 2 µM; in [3] (Leishmania infantum, read-out: IC50 (μM) ± SEM) it was 0.81 ± 0.04 µM; in data set [4] (Leishmania infantum), 1.86 ± 0.08 µM. Also, the “SI: selective index” value in data set [6] (ratio between CC50 in murine macrophages and IC50 in L. infantum chagasi (WT)) is recorded as 15.4. The same compound registered a CC50 at 24 h in data set [7] of 12.5 µM.
As to `[Cl][Sb]([Cl])[Cl]` [SbCl3, antimony trichloride], the IC50 in [1] (setting [10]) was 1503 ± 2 µM; in data set [2] (read-out: IC50 (μM) ± SEM), 362 ± 2 µM; in data set [3] (read-out: IC50 (μM) ± SEM), 341 ± 2 µM; in data set [4] (setting [11]), 462 ± 3 µM.
The like results for `O=C([O-])[C@H]([O-])[C@@H]([O-])C(=O)[O-].O=C([O-])[C@H]([O-])[C@@H]([O-])C(=O)[O-].[K+].[K+].[Sb+3].[Sb+3]` [TA, potassium antimonyl tartrate] were, in that order, > 2700 µM, 83 ± 1 µM, 100 ± 3 µM and > 2700 µM.
For [Bi(dppz)Cl3] [complex 2], the IC50 in data set [1] (setting [10]) is 1.12 ± 0.01 µM; in data set [2] (setting [12]), 1.07 ± 0.03 µM; in data set [2] (read-out: IC50 (μM) ± SEM), ~1 µM; in data set [3] (setting [12]) it was 0.59 ± 0.01 µM; in [3] (read-out: IC50 (μM) ± SEM), ~0.6 µM; in data set [4] (setting [11]) it was 0.61 ± 0.02 µM. Further, the “concentration in whose presence Sb-resistant lines failed to grow” value in [5] is ≤ 1.12 µM. For the same compound, in data set [8], the “log P (octanol/water partition coefficient)” value came out at 0.98 ± 0.17. The “UV absorption spectra as a function of time (stability)” value in data set [9] was “did not show significant changes as a function of time”.
With [Sb(dppz)Cl3] [complex 1], the IC50 in data set [1] (setting [10]) was 0.92 ± 0.02 µM; in data set [2] (setting [13]) it was 0.95 ± 0.02 µM; in [2] (read-out: IC50 (μM) ± SEM), ~1 µM; in data set [3] (setting [13]), 0.62 ± 0.01 µM; in data set [3] (read-out: IC50 (μM) ± SEM), ~0.6 µM; in data set [4] (setting [11]) it was 0.57 ± 0.01 µM. The “concentration in whose presence Sb-resistant lines failed to grow” value in data set [5] is ≤ 1.12 µM. In data set [8], the “log P (octanol/water partition coefficient)” value is listed as 0.94 ± 0.24. Besides, in data set [6] (read-out: CC50: concentration of dppz which is cytotoxic against 50% of macrophages, mouse peritoneal macrophages, MTT, 24 h), the CC50 came to 7 µM. Moreover, the “UV absorption spectra as a function of time (stability)” value in data set [9] is reported as “did not show significant changes as a function of time”.
